# Laboratory results as given in the METLIN SMRT retention time set (Domingo-Almenara et al. 2019).
# Experiment: gradient 5% acetonitrile 3 min, to 50% in 2 min, to 85% in 15 min, held 3 min, 100 µL/min
# Conditions: column: Zorbax Extend-C18 2.1 x 50 mm; eluents: water / acetonitrile, 0.1% formic acid
# Procedure, shortened: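 The system's dead and dwell volumes were 40 μL and 900 μL, with a Zorbax Extend-C18 column (2.1 × 50 mm, 1.8 μm) run at 100 μL/min in water and acetonitrile containing 0.1% formic acid each. Pure standards were analyzed in mixtures of ~100 molecules by HPLC–quadrupole time-of-flight mass spectrometry in positive and negative ionization mode. Retention time was assigned from computationally picked, manually inspected adduct peaks.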
row,Structure (SMILES),RP-LC retention time [s]
1,O=C(Nc1ccccc1)Nc1ccccn1,736
2,CC(=O)N1CCC(CC(=O)N2CCCCCCN(C)C(=O)[C@@H]3CCC[C@@H]32)CC1,663
3,Cc1ccc(C(=O)N2C(C(=O)NCc3ccco3)COC23CCN(C(=O)C(C)(C)C)CC3)cc1 (stereo unspecified),756
4,Cc1cc2c(cc1S(=O)(=O)N1CCCC1C(=O)NCc1ccc3c(c1)OCO3)OCC(=O)N2 (stereo unspecified),718
5,COCCCNC(=O)C1CCN(c2ncccc2S(=O)(=O)N2CCCCC2)CC1,728
6,CC(=O)C1=C(C)N(Cc2ccccc2)C(=O)C1(NC(=O)C1CCCCC1)C(F)(F)F (stereo unspecified),1020
7,Cc1nn(C(C)C(=O)NC(C)C)c(=O)c2nn(-c3ccccc3)c(C)c12 (stereo unspecified),739
8,CCC1CN(C(=O)N2CCC(C(=O)NCCCN3CCCC3)CC2)c2ccccc2O1 (stereo unspecified),627
9,O=C(Cc1nnc(-c2ccc3ncccc3c2)o1)NC1CCCCC1,679
10,CCn1cc(C)c(C(=O)O)c1CC(=O)Nc1ccc2c(c1)OCCO2,762
11,Cc1cccc(CNC(=O)c2c(C)sc3ccn(C)c(=O)c23)c1,787
12,CN1C(=O)C(C)(C(=O)NC2CCCCC2)Oc2cccnc21 (stereo unspecified),784
13,CCCNC(=O)C1CCCN(c2ccc(SCC(=O)NCc3ccc(OC)cc3)nn2)C1 (stereo unspecified),595
14,COc1ccc(Cl)cc1NC(=O)c1csc(-c2cn(C)c3ncccc23)n1,1230
15,CC(C)Cn1nc2n(c1=O)CCN(S(=O)(=O)c1cc(F)ccc1F)CC2,802
16,COCC(C)(O)CNC(=O)c1ccsc1 (stereo unspecified),581
17,COc1ccc(OC)c(NC(=O)C2CC(=O)N(CCc3c[nH]c4ccc(Cl)cc34)C2)c1 (stereo unspecified),849
18,CCOc1ccccc1NC(=O)Cn1ccc2ccc(-c3nnc(CC)o3)cc21,928
19,CCCN1C(=O)COc2ccc(-c3noc(CNC(=O)c4ccccc4)n3)cc21,870

row,Structure (SMILES),RP-LC retention time [s]
1,CCOc1ccc(S(=O)(=O)N2CCCC(C(=O)N3CCOCC3)C2)cc1 (stereo unspecified),777
2,Cc1cccc(NC(=O)CC2COc3ccccc3NC2=O)c1C (stereo unspecified),736
3,CCN1C(=O)c2cc(C(=O)N3CCN(c4ncccn4)CC3)nn2CC1(C)C(=O)NC1CCCC1 (stereo unspecified),691
4,Cn1nc(C(=O)N2CCCCC2)c2c1CCN(C(=O)CCC(=O)NC1CCCCCC1)C2,728
5,Cc1cc(Cl)ccc1S(=O)(=O)N1CCc2nn(C)c(=O)n2CC1,756
6,O=c1ccc(-c2ccc3c(c2)OCO3)nn1CCc1nc(-c2ccccc2Br)no1,936
7,Cc1ccc(CNC(=O)Cn2c(C(C)C)nc3c(c2=O)CN(Cc2ccccc2)CC3)cc1,694
8,CSc1ncc(C(=O)NC2CC2)c(N)n1,543
9,O=P1(N(CCCl)CCCl)NCCCO1 (stereo unspecified),724
10,CC(=O)Nc1ccc(C(=O)NCCNC(=O)CC(c2ccccc2)c2ccccc2)cc1,697
11,CCS(=O)(=O)N1[C@H]2CC[C@@H]1c1cnc(-c3ccc(F)cc3)nc1C2,945
12,CN1C(=O)Cc2cc(C(=O)NC3CCCC3)ccc21,665
13,CCOC(=O)C1=C(CNC2CCCCC2)NC(=O)NC1c1ccc(C)cc1 (stereo unspecified),662
14,COCCN(CC1(C)CCOCC1)C(=O)NCc1cccc(F)c1,768
15,Cc1ccc(CC(=O)Nc2c(C(=O)N3CCN(c4ccccn4)CC3)oc3ccccc23)cc1,716
16,CSc1ccc(-c2nc3cnccn3c2Nc2cccc(Cl)c2C)cc1,1060
17,Cc1ccc(CNC(=O)C2CCN(C(=O)c3ncn4c3COC(c3ccc(Cl)cc3)C4)CC2)cc1 (stereo unspecified),870
18,COc1ccc(-c2cn3c(CC(=O)N4CCOCC4)csc3n2)cc1OC,607

# Next, values leading:
row,RP-LC retention time [s],Structure (SMILES)
1,751,CCN1CCn2cc(S(=O)(=O)Nc3cc(C)ccc3F)cc2C1=O
2,570,Nc1cccc(-c2ccc(N3CCCCC3)nn2)c1
3,946,COC(=O)c1cn(CC(=O)Nc2cc(OC)ccc2OC)c2ccccc12
4,968,CCS(=O)(=O)N1CC(=O)N(c2ccc(C)c(F)c2)C(C)(C(=O)NC2CCCCCC2)C1 (stereo unspecified)
5,672,CC(C)c1nc(C2CN(C(=O)Nc3ccc(F)cc3)C2)n(C)n1
6,829,CC1(C(=O)NCc2ccc(F)cc2)CCCN(C(=O)NCc2ccccc2)C1 (stereo unspecified)
7,977,CCC(=O)N1c2ccc(S(=O)(=O)N3CCCCC3)cc2CC1C(=O)NCCCc1ccccc1 (stereo unspecified)
8,1120,Cc1ccccc1NC(=O)Cn1nc(N2CCCC(C)C2)c2ccccc2c1=O (stereo unspecified)
9,685,CC1SC(C)C(=O)N(CC(=O)NCc2ccco2)C1=O (stereo unspecified)
10,863,Cc1ccccc1-c1nc(C)c(C(=O)NC2CC2)s1
11,654,O=S(=O)(Cc1ccc(Cl)cc1)c1ccc(N2CCN(c3ccccn3)CC2)nn1
12,749,O=C(NCC1CCN(c2ncccn2)CC1)c1cccc(C(F)(F)F)c1
13,884,CCS(=O)(=O)N1CCCc2cc(C(=O)NCCC(C)C)ccc21
14,580,OC[C@@H]1CN(Cc2ccc3[nH]ccc3c2)C[C@H]1c1ccccn1
15,983,COc1ccc(N2CC(c3noc(-c4cccc(N(C)C)c4)n3)CC2=O)cc1 (stereo unspecified)
16,1200,CCCCOc1ccc(-c2nc(C3CC(=O)N(c4ccc(OC)cc4)C3)no2)cc1 (stereo unspecified)
17,837,O=S(=O)(Cc1ccccc1F)N1CCC[C@H]1c1nc(-c2ccc(F)cc2)n[nH]1
18,660,Cc1cc(C)cc(NC(=O)NCc2ccnc(N3CCSCC3)c2)c1
19,1220,CCOc1nc2ccccc2nc1N1CCCC(C(=O)NCc2ccccc2Cl)C1 (stereo unspecified)
20,654,COc1ccc(OC)c(CNC(=O)CCC(=O)N2CCCn3nc(C)cc32)c1
21,1060,O=C(NCc1ccccc1)C1CCN(C(=O)c2cc3ccsc3n2Cc2ccc(Cl)cc2)CC1
22,973,CCOc1ccccc1N1CCN(S(=O)(=O)c2nn(C)cc2C(=O)NCC2CC2)CC1
23,825,O=C(Nc1ccc2c(c1)OCO2)NC1CCCC(OC(=O)Nc2ccc(F)cc2)C1 (stereo unspecified)
24,901,COc1ccc(-c2cc3nn(CC(=O)Nc4ccccc4F)c(=O)n3c(C)n2)cc1
25,797,COc1ccc(OC)c(CNC(=O)C2CCN(c3nnc(-c4ccccc4)o3)CC2)c1
26,611,O=C(c1ccsc1)N1CCn2c(nnc2-c2ccccc2)C1
27,963,CC(C)(C)c1noc(-c2ccc(-n3cnc(C(=O)N4CCSCC4)c3)nc2)n1

row,RP-LC retention time [s],Structure (SMILES)
1,825,COC(=O)CSc1nnc2c(S(=O)(=O)N3CCN(c4ccc(F)cc4)CC3)cccn12
2,693,Cc1cc(OCC(=O)N2CCN(c3ccccn3)CC2)nc2c1c(C)nn2-c1ccccc1
3,952,CN1C(=O)COc2ccc(-c3csc(NC(=O)c4ccc(F)cc4)n3)cc21
4,1010,O=C(NCc1ccc(F)cc1)N1CCN(c2nc3ccccc3nc2C(F)(F)F)CC1
5,759,O=C(CCOc1ccccc1)NCc1ccccc1
6,668,COc1cccc(-c2nc3ccccc3n2CC(=O)N2CCC(C)CC2)c1
7,645,CCn1cc(S(=O)(=O)NCCc2noc(-c3ccncc3)n2)cn1
8,1060,C1CCC(C(CC2CCCCN2)C2CCCCC2)CC1 (stereo unspecified)
9,624,CNC(=O)c1nc(C(C)(C)NC(=O)c2ccoc2)nc2c1OCO2
10,948,O=C(NCc1ccc2c(c1)OCO2)c1nnc(-c2ccc(S(=O)(=O)N3CCCCC3)cc2)o1
11,720,O=C(NC1CC1)c1snc(-c2ccccn2)c1NC(=O)C1CC1
12,607,CCc1nnc(-c2coc(S(=O)(=O)N3CCC(N4CCCCC4)CC3)c2)o1
13,610,CC1CCN(CCCNC(=O)C2CCc3sc(C(=O)N4CCCC4)cc3C2)CC1 (stereo unspecified)
14,706,CCCS(=O)(=O)c1ccc(NCc2ccc(OC)c(OC)c2)nn1
15,920,O=C(Cn1nc2c3cc(-c4ccc(F)cc4)nn3ccn2c1=O)N1CCN(c2ccc(F)cc2)CC1
16,681,CNC(=O)C1CCCN(c2nc3ncn(CC(=O)Nc4cc(F)cc(F)c4)c(=O)c3s2)C1 (stereo unspecified)
17,677,CCn1cc(CCN2CCN(S(=O)(=O)c3ccc(C)c(F)c3)CC2)c2cccnc21
18,1140,CCN(CC)S(=O)(=O)c1ccc(C)c(-c2nnc(-c3ccccc3Cl)o2)c1
19,611,FC(F)(F)Oc1ccc(CN2CCN(c3cnn4cnnc4c3)CC2)cc1
20,856,CCn1nc(C)n2cc(S(=O)(=O)NCc3ccc(F)cc3F)cc2c1=O
21,688,Fc1ccc(OCc2cn(C3CN(Cc4cccc(F)c4)C3)nn2)cc1
22,812,CC1CO/C(=C2\C(=O)OCC2C)C1 (stereo unspecified)
23,968,Cc1ccc(-c2noc(CCn3nc(-c4ccc5c(c4)OCO5)ccc3=O)n2)cc1
24,667,O=C(NCCNC(=O)c1cccc(Cl)c1)c1ccc(NC(=O)C2CC2)cc1
25,918,Cc1nc(C(=O)Nc2ccc(F)c(C)c2)c(C)o1
26,815,O=C(Nc1ccc2c(c1)OCCO2)C1CCCN(C(=O)c2ccc(Cl)cc2)C1 (stereo unspecified)
27,640,COc1ccccc1NC(=O)Nc1nc(CC(=O)N2CCC(C(N)=O)CC2)cs1
